The values below come from patent US20090137572A1, “2-substituted-4-heteroaryl-pyrimidines useful for the treatment of proliferative disorders” (priority 2004, published 2009).

The term melting point denotes the temperature of the solid-liquid transition.

The target in one data set is CDK1-cyclin B (Homo sapiens, UniProt P06493). The data set can be described thus: Kinase assay (radioactive phosphate incorporation), CDK1-cyclin B. The class given is biochemical. Particulars: read-out: Kinase Inhibition pIC50 CDK1-cyclin B (converted). The procedure, abridged: (§1)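 Inhibition was measured as transfer of radiolabelled phosphate from [γ-32P]-ATP (100 μM ATP, 15 mM MgCl2) onto polypeptide substrates by recombinant kinases or kinase complexes. Reactions ran at 30° C in MOPS/β-glycerophosphate buffer, pH 7.4, were stopped on ice and filtered before scintillation counting.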
Chain of CDK1-cyclin B (P06493 whole entry): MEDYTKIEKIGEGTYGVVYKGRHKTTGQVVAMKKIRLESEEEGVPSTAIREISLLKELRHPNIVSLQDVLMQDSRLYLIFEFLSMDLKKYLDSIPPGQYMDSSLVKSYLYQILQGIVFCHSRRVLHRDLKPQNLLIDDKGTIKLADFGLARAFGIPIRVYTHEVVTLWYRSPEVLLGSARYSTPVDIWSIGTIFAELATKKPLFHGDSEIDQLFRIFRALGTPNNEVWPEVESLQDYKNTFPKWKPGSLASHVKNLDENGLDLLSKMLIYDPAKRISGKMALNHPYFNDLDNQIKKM
Chain of CDK1-cyclin B (P14635 whole entry partner): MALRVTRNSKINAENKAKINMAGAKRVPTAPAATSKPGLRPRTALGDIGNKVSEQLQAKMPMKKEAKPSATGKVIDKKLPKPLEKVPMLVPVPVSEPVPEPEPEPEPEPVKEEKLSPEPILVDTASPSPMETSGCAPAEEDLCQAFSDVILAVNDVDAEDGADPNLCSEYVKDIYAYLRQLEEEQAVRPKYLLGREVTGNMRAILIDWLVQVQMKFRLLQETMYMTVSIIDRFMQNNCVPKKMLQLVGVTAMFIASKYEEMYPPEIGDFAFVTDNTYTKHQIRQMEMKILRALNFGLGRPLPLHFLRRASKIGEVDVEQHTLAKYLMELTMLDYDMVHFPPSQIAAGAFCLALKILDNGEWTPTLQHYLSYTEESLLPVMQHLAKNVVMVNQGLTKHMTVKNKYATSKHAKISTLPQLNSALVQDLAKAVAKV

In another data set the target is T1, Aurora A kinase (Homo sapiens, UniProt O14965).
T1 construct: purchased
T1 sequence (O14965 1-403): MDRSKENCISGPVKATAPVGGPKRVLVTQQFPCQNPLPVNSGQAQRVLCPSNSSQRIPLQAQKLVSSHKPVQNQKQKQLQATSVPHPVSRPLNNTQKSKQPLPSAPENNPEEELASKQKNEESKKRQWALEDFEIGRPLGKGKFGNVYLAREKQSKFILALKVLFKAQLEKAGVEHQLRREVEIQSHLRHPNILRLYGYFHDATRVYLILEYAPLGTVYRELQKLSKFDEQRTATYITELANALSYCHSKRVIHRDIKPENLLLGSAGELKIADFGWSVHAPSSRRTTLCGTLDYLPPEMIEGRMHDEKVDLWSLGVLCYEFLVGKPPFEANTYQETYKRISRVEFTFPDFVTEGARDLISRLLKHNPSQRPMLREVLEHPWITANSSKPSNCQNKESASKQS
The data set can be described thus: Aurora-A (human) kinase assay (Kemptide substrate). The class given is biochemical. The settings on record: pIC50 is -log(IC50, M); 15 μM ATP; read-out: Kinase Inhibition pIC50 Aurora A kinase (converted). The essentials:
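Kemptide (LRRASLG, 200 μM) phosphorylation by 5-10 ng commercial aurora-A measured as [γ-33P] incorporation at 15 μM ATP with 10 mM Mg acetate, pH 7.0 MOPS buffer. Reaction ran 40 min at room temperature; acid-stopped, captured on P81 filters, scintillation read.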

Another data set deals with CDK2-cyclin A (Homo sapiens, UniProt P24941). The data set can be described thus: Kinase assay (radioactive phosphate incorporation), CDK2-cyclin A. Format: biochemical. Particulars: read-out: Kinase Inhibition pIC50 CDK2-cyclin A (converted). As for the experimental part:
(§2) Kinase assays. The compounds of the invention above were investigated for their ability to inhibit the enzymatic activity of various protein kinases (Table 2). This was achieved by measurement of incorporation of radioactive phosphate from ATP into appropriate polypeptide substrates. Recombinant protein kinases and kinase complexes were produced or obtained commercially. Assays were performed using 96-well plates and appropriate assay buffers (typically 25 mM β-glycerophosphate, 20 mM MOPS, 5 mM EGTA, 1 mM DTT, 1 mM […], pH 7.4), into which were added 2-4 μg of active enzyme with appropriate substrates. The reactions were initiated by addition of Mg/ATP mix (15 mM MgCl2+100 μM ATP with 30-50 kBq per well of [γ-^32P]-ATP) and mixtures incubated as required at 30° C. Reactions were stopped on ice, followed by filtration through p81 filterplates or GF/C filterplates (Whatman Polyfiltronics, Kent, UK). After washing 3 times with 75 mM aq orthophosphoric acid, plates were dried, scintillant added and incorporated radioactivity measured in a scintillation counter (TopCount, Packard Instruments, Pangbourne, Berks, UK). Compounds for kinase assay were made up as 10 mM stocks in DMSO and diluted into 10% DMSO in assay buffer.

For another data set, the target named is GSK3b (Homo sapiens, UniProt P49841). The data set can be described thus: Kinase assay (radioactive phosphate incorporation), GSK-3b. The settings on record: read-out: Kinase Inhibition pIC50 GSK-3b (converted). The class given is biochemical. As for the experimental part: as §2
Chain of GSK3b (P49841 whole entry, species assumed): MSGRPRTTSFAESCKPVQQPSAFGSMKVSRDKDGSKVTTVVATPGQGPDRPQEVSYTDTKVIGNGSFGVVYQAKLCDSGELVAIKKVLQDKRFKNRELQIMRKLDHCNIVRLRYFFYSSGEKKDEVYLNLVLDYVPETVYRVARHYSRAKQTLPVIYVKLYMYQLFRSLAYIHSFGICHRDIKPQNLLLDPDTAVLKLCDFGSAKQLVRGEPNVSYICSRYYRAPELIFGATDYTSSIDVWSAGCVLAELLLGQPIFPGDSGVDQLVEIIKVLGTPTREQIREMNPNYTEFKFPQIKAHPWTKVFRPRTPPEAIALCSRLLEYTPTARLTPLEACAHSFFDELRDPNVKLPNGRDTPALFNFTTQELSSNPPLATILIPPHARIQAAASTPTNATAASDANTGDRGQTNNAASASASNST
Another data set has as its target CDK2-cycline E (Homo sapiens, UniProt P24941). The data set can be described thus: Kinase assay (radioactive phosphate incorporation), CDK2-cyclin E. Format: biochemical. The settings on record: read-out: Kinase Inhibition pIC50 CDK2-cycline E (converted). The essentials:
as §1

The target of another data set is CDK7/cyclin H (Homo sapiens, UniProt P50613). The data set can be described thus: CDK 7 assay (CTD peptide substrate). The class given is biochemical. Particulars: read-out: Kinase Inhibition pIC50 CDK7-cyclin H (converted). The essentials:
(§3)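 Radiometric filter-binding read-out: 32P transferred from 100 μM [γ-32P]ATP to biotinyl-(YSPTSPS)4 CTD peptide. Enzyme 0.5-2 μg recombinant human complex; 20 mM MOPS pH 7.2, 15 mM MgCl2, vanadate, DTT; 45 min, 30° C; avidin bound, P81 plate washed, counted.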

The target of a further data set is CDK9/cyclin T1 (Homo sapiens, UniProt P50750). The data set can be described thus: CDK 9 assay (CTD peptide substrate). Format: biochemical. Particulars: read-out: Kinase Inhibition pIC50 CDK9-cyclin T1 (converted). The procedure, abridged:
as §3

Another data set addresses CDK4-cyclin D1 (Homo sapiens, UniProt P11802). The data set can be described thus: Kinase assay (radioactive phosphate incorporation), CDK4-cyclin D1. Format: biochemical. Particulars: read-out: Kinase Inhibition pIC50 CDK4-cyclin D1 (converted). The essentials:
as §1

Data set [1] concerns the target T2, Flt3 (FMS-like tyrosine kinase-3) (Homo sapiens, UniProt P36888).
T2 sequence (P36888 27-993): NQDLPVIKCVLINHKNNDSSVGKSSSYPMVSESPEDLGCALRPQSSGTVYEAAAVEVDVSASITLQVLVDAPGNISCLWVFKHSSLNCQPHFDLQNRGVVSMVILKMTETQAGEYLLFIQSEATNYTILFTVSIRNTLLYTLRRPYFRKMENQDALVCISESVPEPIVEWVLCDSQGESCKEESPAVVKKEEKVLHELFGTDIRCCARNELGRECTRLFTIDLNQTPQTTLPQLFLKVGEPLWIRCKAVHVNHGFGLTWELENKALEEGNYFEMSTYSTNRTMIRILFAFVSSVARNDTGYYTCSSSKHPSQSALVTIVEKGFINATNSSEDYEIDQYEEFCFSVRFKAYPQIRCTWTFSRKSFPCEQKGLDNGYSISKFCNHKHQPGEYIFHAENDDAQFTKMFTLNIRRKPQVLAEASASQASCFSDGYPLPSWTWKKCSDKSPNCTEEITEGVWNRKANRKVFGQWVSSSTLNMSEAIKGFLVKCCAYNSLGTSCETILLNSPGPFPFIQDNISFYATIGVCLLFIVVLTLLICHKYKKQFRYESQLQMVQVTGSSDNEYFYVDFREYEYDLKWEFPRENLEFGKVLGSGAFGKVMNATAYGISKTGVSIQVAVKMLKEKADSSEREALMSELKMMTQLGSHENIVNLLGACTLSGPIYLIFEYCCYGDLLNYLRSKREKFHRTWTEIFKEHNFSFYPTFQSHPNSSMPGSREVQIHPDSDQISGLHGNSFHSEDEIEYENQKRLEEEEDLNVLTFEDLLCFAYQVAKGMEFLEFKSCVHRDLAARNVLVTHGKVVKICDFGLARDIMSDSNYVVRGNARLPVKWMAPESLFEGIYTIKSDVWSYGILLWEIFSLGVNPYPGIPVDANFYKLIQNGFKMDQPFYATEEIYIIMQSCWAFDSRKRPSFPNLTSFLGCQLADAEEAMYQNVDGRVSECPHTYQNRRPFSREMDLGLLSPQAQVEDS
The data set can be described thus: Kinase assay (radioactive phosphate incorporation), Flt3. Format: biochemical. Particulars: pIC50 is -log(IC50, M), read-out: Kinase Inhibition pIC50 Flt3 (converted). The procedure, abridged: as §1

Chain of CDK9/cyclin T1 (P50750 whole entry): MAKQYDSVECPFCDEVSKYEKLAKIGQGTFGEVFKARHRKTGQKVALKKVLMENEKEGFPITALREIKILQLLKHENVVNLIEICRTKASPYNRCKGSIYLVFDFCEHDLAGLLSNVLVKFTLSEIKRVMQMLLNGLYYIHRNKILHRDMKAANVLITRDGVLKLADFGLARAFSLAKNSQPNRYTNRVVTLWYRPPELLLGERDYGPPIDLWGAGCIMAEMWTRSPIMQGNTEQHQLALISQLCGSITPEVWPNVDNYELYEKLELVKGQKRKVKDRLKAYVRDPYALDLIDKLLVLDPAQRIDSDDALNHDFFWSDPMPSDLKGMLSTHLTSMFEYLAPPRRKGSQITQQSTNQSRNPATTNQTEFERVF
Chain of CDK9/cyclin T1 (O60563 whole entry partner): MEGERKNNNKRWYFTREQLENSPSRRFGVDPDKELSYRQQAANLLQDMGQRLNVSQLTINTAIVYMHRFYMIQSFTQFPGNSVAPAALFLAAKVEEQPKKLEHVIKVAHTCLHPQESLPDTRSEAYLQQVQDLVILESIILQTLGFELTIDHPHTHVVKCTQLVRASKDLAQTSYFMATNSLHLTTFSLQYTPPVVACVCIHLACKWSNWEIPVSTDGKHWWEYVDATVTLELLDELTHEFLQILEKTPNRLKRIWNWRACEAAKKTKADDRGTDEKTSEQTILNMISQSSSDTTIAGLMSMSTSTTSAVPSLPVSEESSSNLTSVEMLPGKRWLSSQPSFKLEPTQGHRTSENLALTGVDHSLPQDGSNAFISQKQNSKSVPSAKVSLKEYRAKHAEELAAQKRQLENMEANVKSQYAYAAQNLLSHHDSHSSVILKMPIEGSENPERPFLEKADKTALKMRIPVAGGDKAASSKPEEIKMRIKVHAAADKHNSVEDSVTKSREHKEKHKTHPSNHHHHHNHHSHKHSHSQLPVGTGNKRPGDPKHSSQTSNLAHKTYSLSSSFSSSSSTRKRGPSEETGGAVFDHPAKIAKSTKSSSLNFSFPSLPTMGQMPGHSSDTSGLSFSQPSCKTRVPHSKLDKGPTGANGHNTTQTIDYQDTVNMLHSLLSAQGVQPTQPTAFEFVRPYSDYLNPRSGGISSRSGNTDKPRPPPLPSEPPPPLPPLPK
Chain of CDK4-cyclin D1 (P11802 whole entry): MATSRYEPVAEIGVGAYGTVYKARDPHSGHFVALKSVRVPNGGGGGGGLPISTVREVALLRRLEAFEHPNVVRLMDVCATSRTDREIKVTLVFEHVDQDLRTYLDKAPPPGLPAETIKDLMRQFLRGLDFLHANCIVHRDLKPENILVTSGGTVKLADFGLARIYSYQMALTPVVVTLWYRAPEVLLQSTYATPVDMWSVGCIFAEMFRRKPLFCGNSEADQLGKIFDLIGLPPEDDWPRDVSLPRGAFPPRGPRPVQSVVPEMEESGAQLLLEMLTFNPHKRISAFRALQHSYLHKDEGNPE
Chain of CDK4-cyclin D1 (P24385 whole entry partner): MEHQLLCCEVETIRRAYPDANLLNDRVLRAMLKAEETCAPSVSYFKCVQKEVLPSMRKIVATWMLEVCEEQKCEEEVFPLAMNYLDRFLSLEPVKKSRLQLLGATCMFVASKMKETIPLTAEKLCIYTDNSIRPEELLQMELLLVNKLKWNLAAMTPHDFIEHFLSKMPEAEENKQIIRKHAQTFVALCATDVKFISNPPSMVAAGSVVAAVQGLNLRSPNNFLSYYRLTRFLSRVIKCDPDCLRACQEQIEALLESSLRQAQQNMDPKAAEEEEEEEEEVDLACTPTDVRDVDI
Chain of CDK7/cyclin H (P50613 whole entry): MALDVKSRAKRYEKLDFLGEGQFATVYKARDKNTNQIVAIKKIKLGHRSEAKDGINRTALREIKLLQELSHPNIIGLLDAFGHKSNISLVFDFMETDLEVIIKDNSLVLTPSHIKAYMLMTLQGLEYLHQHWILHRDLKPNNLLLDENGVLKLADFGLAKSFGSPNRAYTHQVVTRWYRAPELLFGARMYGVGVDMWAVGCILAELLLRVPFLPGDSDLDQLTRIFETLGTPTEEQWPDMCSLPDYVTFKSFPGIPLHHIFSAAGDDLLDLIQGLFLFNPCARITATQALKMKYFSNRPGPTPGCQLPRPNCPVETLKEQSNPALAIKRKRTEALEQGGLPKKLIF
Chain of CDK7/cyclin H (P51946 whole entry partner): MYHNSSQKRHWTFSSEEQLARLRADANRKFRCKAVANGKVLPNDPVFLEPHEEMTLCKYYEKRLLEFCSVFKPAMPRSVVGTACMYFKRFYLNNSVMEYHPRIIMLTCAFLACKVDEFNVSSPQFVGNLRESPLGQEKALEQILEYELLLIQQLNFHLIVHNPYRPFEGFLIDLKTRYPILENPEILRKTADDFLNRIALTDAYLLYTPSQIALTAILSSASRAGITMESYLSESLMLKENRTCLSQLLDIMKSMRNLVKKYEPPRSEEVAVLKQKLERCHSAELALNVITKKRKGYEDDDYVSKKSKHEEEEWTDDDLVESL

As to `Cc1nc(C)c(-c2ccnc(Nc3cccc(S(C)(=O)=O)c3)n2)s1` [Compound 4, [4-(2,4-Dimethyl-thiazol-5-yl)-pyrimidin-2-yl]-(3-methanesulfonyl-phenyl)-amine], the IC50 was 0.501 µM at CDK1-cyclin B; 0.251 µM at Aurora A kinase; 1 µM at CDK2-cyclin A; 0.398 µM on GSK3b; 0.316 µM at CDK2-cycline E; 1 µM on CDK7/cyclin H. Moreover, the IC50 on CDK9/cyclin T1 was 0.251 µM; at CDK4-cyclin D1, 1.26 µM.

For the compound `CCNc1nc(C)c(-c2ccnc(Nc3cccc(CNS(=O)(=O)C(F)(F)F)c3)n2)s1` [Compound 10, N-{3-[4-(2-Ethylamino-4-methyl-thiazol-5-yl)-pyrimidin-2-ylamino]-benzyl}-C,C,C-trifluoro-methanesulfonamide], the IC50 is 2 µM at Aurora A kinase; 6.31 µM on CDK2-cyclin A; 6.31 µM at GSK3b; 1.58 µM on CDK2-cycline E; 6.31 µM at CDK7/cyclin H; 0.158 µM in data set [1]. Moreover, at CDK9/cyclin T1, the IC50 is 0.316 µM.

As for `CCNc1nc(C)c(-c2ccnc(Nc3cccc(S(C)(=O)=O)c3)n2)s1` [Compound 28, [4-(2-Ethylamino-4-methyl-thiazol-5-yl)-pyrimidin-2-yl]-(3-methanesulfonyl-phenyl)-amine], the IC50 on CDK2-cyclin A was 0.794 µM; on GSK3b it was 0.631 µM; at CDK2-cycline E, 0.0158 µM; at CDK7/cyclin H, 0.1 µM; in data set [1], 0.0794 µM; on CDK9/cyclin T1 it was 0.00316 µM. Also, on CDK4-cyclin D1, the IC50 is 0.251 µM.

Regarding `CCNS(=O)(=O)c1cccc(Nc2nccc(-c3sc(NC)nc3C)n2)c1` [Compound 31, N-Ethyl-3-[4-(4-methyl-2-methylamino-thiazol-5-yl)-pyrimidin-2-ylamino]-benzenesulfonamide], the IC50 on CDK1-cyclin B is 0.501 µM; on Aurora A kinase it was 0.0631 µM; on CDK2-cyclin A, 1.26 µM; at CDK2-cycline E it was 0.251 µM; at CDK7/cyclin H, 1 µM; in data set [1], 0.0631 µM. Besides, the IC50 on CDK9/cyclin T1 was 0.02 µM; on CDK4-cyclin D1 it was 0.0501 µM.

As for `CNc1nc(C)c(-c2ccnc(Nc3ccc(S(=O)(=O)NCCOC)cc3)n2)s1` [Compound 40, N-(2-Methoxy-ethyl)-4-[4-(4-methyl-2-methylamino-thiazol-5-yl)-pyrimidin-2-ylamino]-benzenesulfonamide], the IC50 is 0.0794 µM at CDK1-cyclin B; 0.00501 µM on Aurora A kinase; 0.0158 µM on CDK2-cyclin A; 0.501 µM on GSK3b; 0.00316 µM on CDK2-cycline E; 0.158 µM at CDK9/cyclin T1.

`COCCNS(=O)(=O)c1ccc(Nc2nccc(-c3sc(N)nc3C)n2)cc1` [Compound 41, 4-[4-(2-Amino-4-methyl-thiazol-5-yl)-pyrimidin-2-ylamino]-N-(2-methoxy-ethyl)-benzenesulfonamide]: the IC50 on CDK1-cyclin B was 0.0501 µM; on Aurora A kinase, 0.0501 µM; on CDK2-cyclin A it was 0.0158 µM; on GSK3b, 0.794 µM; on CDK2-cycline E, 0.00794 µM; at CDK7/cyclin H it was 3.16 µM. On CDK4-cyclin D1, the IC50 was 0.501 µM.

As for `CCNc1nc(C)c(-c2ccnc(Nc3cccc(CC(=O)OCCOC)c3)n2)s1` [Compound 45, {3-[4-(2-Ethylamino-4-methyl-thiazol-5-yl)-pyrimidin-2-ylamino]-phenyl}-acetic acid 2-methoxy-ethyl ester], the IC50 on CDK1-cyclin B was 5.01 µM; on Aurora A kinase, 0.0158 µM; on CDK2-cyclin A it was 3.16 µM; at CDK2-cycline E it was 2.51 µM; at CDK7/cyclin H, 3.98 µM; in [1], 0.1 µM. For the same compound, the results for the IC50 on CDK9/cyclin T1 and at CDK4-cyclin D1 were 0.398 µM and 3.16 µM, respectively.

`COCCNS(=O)(=O)c1cccc(Nc2nccc(-c3sc(C)nc3C)n2)c1` [Compound 56, 3-[4-(2,4-Dimethyl-thiazol-5-yl)-pyrimidin-2-ylamino]-N-(2-methoxy-ethyl)-benzenesulfonamide] came in with a melting point of 197 to 198 °C. For the same compound, the IC50 on Aurora A kinase was 0.126 µM. Further, at CDK2-cyclin A, the IC50 was 3.98 µM. Also, at GSK3b, the IC50 is 1.26 µM. Also, the IC50 on CDK7/cyclin H is 5.01 µM. Also, the IC50 at CDK9/cyclin T1 was 0.501 µM.

As for `CCNc1nc(C)c(-c2ccnc(Nc3ccc(N4CCN(Cc5ccccc5)CC4)cc3)n2)s1` [Compound 60, [4-(4-Benzyl-piperazin-1-yl)-phenyl]-[4-(2-ethylamino-4-methyl-thiazol-5-yl)-pyrimidin-2-yl]-amine], the IC50 at CDK1-cyclin B was 6.31 µM; on Aurora A kinase, 0.0501 µM; on CDK2-cyclin A, 3.16 µM; on CDK2-cycline E it was 0.631 µM; on CDK7/cyclin H, 0.2 µM; in data set [1], 0.0398 µM. Moreover, the IC50 at CDK9/cyclin T1 is 0.316 µM; at CDK4-cyclin D1, 0.158 µM.

Take `Cc1nc(N)sc1-c1ccnc(Nc2ccc(N3CCNCC3)cc2)n1` [Compound 61, [4-(2-Amino-4-methyl-thiazol-5-yl)-pyrimidin-2-yl]-(4-piperazin-1-yl-phenyl)-amine]: the IC50 at CDK1-cyclin B was 6.31 µM; at Aurora A kinase it was 0.02 µM; at CDK2-cyclin A it was 2 µM; on CDK2-cycline E, 0.398 µM; at CDK7/cyclin H it was 0.398 µM; in [1], 0.0631 µM. Moreover, the IC50 is 0.158 µM at CDK9/cyclin T1 and 0.251 µM at CDK4-cyclin D1.
